The values that follow come from patent US20220267281A1, “UNSATURATED HETEROCYCLOALKYL AND HETEROAROMATIC ACYL HYDRAZONE LINKERS, METHODS AND USES THEREOF” (priority 2019, published 2022).

This experiment has as its system SKOV3 ovarian cells. The experiment can be described thus: Cytotoxicity of ADCs against SKOV3 cell lines (viable cells by ATP content, CellTiter-Glo). Particulars: SKOV3 ovarian cancer cells, 3 to 5 days incubation with ADC, % survival curve fit. The experiment is classed as cell-based.

Procedure: The cytotoxic activity of Trastuzumab ADCs of Formula (IV) was tested against SKOV3 ovarian cell lines
SKOV3 ovarian cells were incubated with the effectors for a period corresponding to 2 to 3 times their estimated doubling time and the amount of viable cells was determine by measuring ATP content in the wells. […] All ADCs were diluted in DPBS to 6× the highest concentration tested, followed by 10 3-fold serial dilutions in DPBS for a total of 11 concentration points. Each point was added to triplicate wells. DPBS was added in wells to measure the maximum growth. Cells were diluted at their appropriate seeding density (ranging from 150 to 1000 cells per well) in complete media supplemented with glutamine 2 mM, serum and antibiotic cocktail. […] Total ATP was measured using CellTiter-Glo™ reagent from Promega as recommended by the supplier. […] Signal output was measured on a luminescence plate reader (Envision™, Perkin Elmer) set at an integration time of 0.1 sec. […]
Each concentration point (S) was normalized to the negative control wells (NC) and expressed as % survival (NC-S/NC×100). Potency (IC50) and efficacy were calculated from a non-linear curve fit of the points versus log of the concentrations without constrain on the slope. Refined data were analysed using Prism™ software.

For orientation: IC50 means the concentration that gives 50% inhibition. A lower IC50 goes with higher potency. For Synagis-SMCC-DM1: negative control ADC, the midpoint of inhibition, the IC50, lay at 4.01 nM.
